According to PubChem BioAssay AID1963985 (Molecular Pharmacology Branch, DTP, NCI, 2024):

Tested on: 252836-082-R-J2-PDC tumor spheroids, viability
Experiment: Anticancer human tumor 252836-082-R-J2-PDC patient-derived head and neck squamous cell carcinoma cell line growth inhibition [PI3K]
Conditions: spheroids with HUVEC and MSC; for IC50: curve of first compound; for viability, T/C: stronger effect = lower value
Summary of the method: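 We assembled tumor spheroids that included a stromal compartment of HUVEC and MSCs, then exposed them to targeted agents alone and together with PI3K pathway inhibitors. Concentration series descended by half-log from clinically achievable Cmax levels. Viability served as the endpoint.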

[1] = second compound 0.0316 µM, first compound 0.00316 µM
[2] = second compound 0.0316 µM, first compound 0.01 µM
[3] = second compound 0.0316 µM, first compound 0.0316 µM
[4] = second compound 0.0316 µM, first compound 0.1 µM
[5] = second compound 0.0316 µM, first compound 0.316 µM
[6] = second compound 0.0316 µM, first compound 1 µM
[7] = second compound 0.1 µM, first compound 0.00316 µM
[8] = second compound 0.1 µM, first compound 0.01 µM
[9] = second compound 0.1 µM, first compound 0.0316 µM
[10] = second compound 0.1 µM, first compound 0.1 µM
[11] = second compound 0.1 µM, first compound 0.316 µM
[12] = second compound 0.1 µM, first compound 1 µM
[13] = second compound 0.316 µM, first compound 0.00316 µM
[14] = second compound 0.316 µM, first compound 0.01 µM
[15] = second compound 0.316 µM, first compound 0.0316 µM
[16] = second compound 0.316 µM, first compound 0.1 µM
[17] = second compound 0.316 µM, first compound 0.316 µM
[18] = second compound 0.316 µM, first compound 1 µM
[19] = second compound 1 µM, first compound 0.00316 µM
[20] = second compound 1 µM, first compound 0.01 µM
[21] = second compound 1 µM, first compound 0.0316 µM
[22] = second compound 1 µM, first compound 0.1 µM
[23] = second compound 1 µM, first compound 0.316 µM
[24] = second compound 1 µM, first compound 1 µM
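Further: spheroids exposed to agents for seven days before readout.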
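Wherever viability, T/C is given: percent of vehicle DMSO control viability so 100% = untreated growth.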

Compound: CCN1CCN(Cc2ccc(Nc3ncc(F)c(-c4cc(F)c5nc(C)n(C(C)C)c5c4)n3)nc2)CC1 + Cc1nc(NC(=O)N2CCCC2C(N)=O)sc1-c1ccnc(C(C)(C)C(F)(F)F)c1
- IC50 (second compound 0.0316 µM): > 1 µM
- IC50 (second compound 0.1 µM): > 1 µM
- IC50 (second compound 0.316 µM): > 1 µM
- IC50 (second compound 1 µM): > 1 µM
- IC50 (second compound 3.16 µM): < 0.00316 µM
- IC50 (second compound 10 µM): < 0.00316 µM
- viability, T/C [1]: 101%
- viability, T/C [2]: 94.1%
- viability, T/C [3]: 80.8%
- viability, T/C [4]: 80.5%
- viability, T/C [5]: 91.3%
- viability, T/C [6]: 87%
- viability, T/C [7]: 84.2%
- viability, T/C [8]: 85%
- viability, T/C [9]: 77.8%
- viability, T/C [10]: 80.2%
- viability, T/C [11]: 85.7%
- viability, T/C [12]: 86.3%
- viability, T/C [13]: 67.8%
- viability, T/C [14]: 74.8%
- viability, T/C [15]: 64.7%
- viability, T/C [16]: 69.9%
- viability, T/C [17]: 59%
- viability, T/C [18]: 68%
- viability, T/C [19]: 58.3%
- viability, T/C [20]: 74.9%
- viability, T/C [21]: 59.4%
- viability, T/C [22]: 61.9%
- viability, T/C [23]: 62.5%
- viability, T/C [24]: 46.4%
- viability, T/C (second compound 3.16 µM, first compound 0.00316 µM): 49.1%
- viability, T/C (second compound 3.16 µM, first compound 0.01 µM): 39.4%
- viability, T/C (second compound 3.16 µM, first compound 0.0316 µM): 43.5%
- viability, T/C (second compound 3.16 µM, first compound 0.1 µM): 40.2%
- viability, T/C (second compound 3.16 µM, first compound 0.316 µM): 44.2%
- viability, T/C (second compound 3.16 µM, first compound 1 µM): 43.1%
- viability, T/C (second compound 10 µM, first compound 0.00316 µM): 35.4%
- viability, T/C (second compound 10 µM, first compound 0.01 µM): 42.1%
- viability, T/C (second compound 10 µM, first compound 0.0316 µM): 27.5%
- viability, T/C (second compound 10 µM, first compound 0.1 µM): 40.1%
- viability, T/C (second compound 10 µM, first compound 0.316 µM): 32%
- viability, T/C (second compound 10 µM, first compound 1 µM): 21.1%

Compound: CCN1CCN(Cc2ccc(Nc3ncc(F)c(-c4cc(F)c5nc(C)n(C(C)C)c5c4)n3)nc2)CC1 + COc1c(OCCCN2CCOCC2)ccc2c3n(c(=NC(=O)c4cnc(N)nc4)nc12)CCN3
- IC50 (second compound 0.00316 µM): > 1 µM
- IC50 (second compound 0.01 µM): > 1 µM
- IC50 (second compound 0.0316 µM): > 1 µM
- IC50 (second compound 0.1 µM): < 0.00316 µM
- IC50 (second compound 0.316 µM): < 0.00316 µM
- IC50 (second compound 1 µM): < 0.00316 µM
- viability, T/C (second compound 0.00316 µM, first compound 0.00316 µM): 86.4%
- viability, T/C (second compound 0.00316 µM, first compound 0.01 µM): 80.1%
- viability, T/C (second compound 0.00316 µM, first compound 0.0316 µM): 97.1%
- viability, T/C (second compound 0.00316 µM, first compound 0.1 µM): 85.4%
- viability, T/C (second compound 0.00316 µM, first compound 0.316 µM): 91.6%
- viability, T/C (second compound 0.00316 µM, first compound 1 µM): 82.6%
- viability, T/C (second compound 0.01 µM, first compound 0.00316 µM): 75.8%
- viability, T/C (second compound 0.01 µM, first compound 0.01 µM): 75.2%
- viability, T/C (second compound 0.01 µM, first compound 0.0316 µM): 82.5%
- viability, T/C (second compound 0.01 µM, first compound 0.1 µM): 80.8%
- viability, T/C (second compound 0.01 µM, first compound 0.316 µM): 72.6%
- viability, T/C (second compound 0.01 µM, first compound 1 µM): 78%
- viability, T/C [1]: 56.2%
- viability, T/C [2]: 59%
- viability, T/C [3]: 55.4%
- viability, T/C [4]: 57%
- viability, T/C [5]: 55.5%
- viability, T/C [6]: 47%
- viability, T/C [7]: 34.6%
- viability, T/C [8]: 34.9%
- viability, T/C [9]: 31.2%
- viability, T/C [10]: 29.7%
- viability, T/C [11]: 33.9%
- viability, T/C [12]: 32.4%
- viability, T/C [13]: 14.1%
- viability, T/C [14]: 15.2%
- viability, T/C [15]: 12.4%
- viability, T/C [16]: 13.1%
- viability, T/C [17]: 17.7%
- viability, T/C [18]: 14.9%
- viability, T/C [19]: 4.92%
- viability, T/C [20]: 3.69%
- viability, T/C [21]: 3.43%
- viability, T/C [22]: 4.13%
- viability, T/C [23]: 5.78%
- viability, T/C [24]: 8.31%
